Measured values taken from patent publication US20110110923A1, “FISH ASSAY FOR EML4 AND ALK FUSION IN LUNG CANCER” (The Brigham and Women's Hospital, Inc., priority 2008, published 2011).
“Also recorded” adds a separate entry of the source.

Legend:
Karpas 299 cells = conditions: NPM-ALK positive lymphoma cells; cited from earlier work
[1] = in vivo; cited from earlier work
[2] = system: Akt, STAT3 and ERK 1/2 phosphorylation in H3122; experiment: Western blot of downstream signalling, H3122; assay type: cell-based, human; conditions: H3122, 0.1 μM, 6 hours
Description: (§1) The supernatant was used for subsequent procedures. […] Immunoblotting was performed according to the antibody manufacturers' recommendations. […] Total ERK1/2 and phospho-ERK1/2 (pT185/pY187) antibodies were purchased from Biosource International (Camarillo, Calif.).

[3] = system: A549 cell line (K-Ras G12S); experiment: MTS cell growth assay, A549; assay type: cell-based, human; conditions: A549, 72 hours
Description: (§2) Growth and inhibition of growth was assessed by methoxy-tetrazolium salt (MTS) assay. This assay, a colorimetric method for determining the number of viable cells, is based on the bioreduction of 3-(4,5-dimethylthiazol-2-yl)-5-(3-carboxymethoxyphenyl)-2-(4-sulfophenyl)-2H-tetrazolium (MTS) by cells to a formazan product that is soluble in cell culture medium, can be detected spectrophotometrically. NSCLC cells were exposed to treatment for 72 hours and the number of cells used per experiment determined empirically. All experimental points were set up in six to twelve wells and all experiments were repeated at least three times. […] The curves were fitted using a non-linear regression model with a sigmoidal dose response.

[4] = system: DFCI032 cell line (EML4-ALK variant 1); experiment: MTS cell growth assay, DFCI032; assay type: cell-based; conditions: Homo sapiens, read-out: IC50, growth inhibition, DFCI032, 72 hours
Description: as §2

[5] = system: PC-9 cell line (EGFR delE746_A750); experiment: MTS cell growth assay, PC-9; assay type: cell-based, human; conditions: PC-9, 72 hours
Text: All experimental points were set up in six to twelve wells and all experiments were repeated at least three times. […] The curves were fitted using a non-linear regression model with a sigmoidal dose response.

H3122 cell line = experiment: Apoptosis by FACS (sub G1) and Western blot for cleaved PARP, H3122; assay type: cell-based, human; conditions: H3122, 0.1 μM, 72 h
Description: as §1
Cells were collected and fixed in 40% ethanol for at least 1 hour (or until ready for the experiment) at 4° C. The fixed cells were treated with 0.5 mL of […] RNase A for 45 minutes at 37° C. and stained with […] propidium iodide (in 38 mM sodium citrate) for at least 30 minutes at room temperature in the dark. The stained cells were then analyzed for DNA content in a Becton Dickinson fluorescence-activated cell sorter using both ModFit (Verity Software House, Topsham, Me.) and CellQuest (Becton Dickinson, San Jose, Calif.) programs.

[6] = system: H3122 cell line (EML4-ALK variant 1); experiment: MTS cell growth assay, H3122; assay type: cell-based; conditions: Homo sapiens, NCI-H3122, read-out: IC50, growth inhibition, H3122, 72 hours
Description: as §2

[7] = system: other cell lines (H2228, DFCI032, PC-9, A549); experiment: Growth arrest / apoptosis in the other NSCLC cell lines; assay type: cell-based, human; conditions: other cell lines than H3122
Description: as §2, §1
Cells were collected and fixed in 40% ethanol for at least 1 hour (or until ready for the experiment) at 4° C. […] The stained cells were then analyzed for DNA content in a Becton Dickinson fluorescence-activated cell sorter using both ModFit (Verity Software House, Topsham, Me.) and CellQuest (Becton Dickinson, San Jose, Calif.) programs.

[8] = system: Akt, STAT3 and ERK 1/2 phosphorylation in DFCI032; experiment: Western blot of downstream signalling, DFCI032; assay type: cell-based, human; conditions: DFCI032, 0.1 μM, 6 hours
Description: as §1

[9] = system: Akt, STAT3 and ERK 1/2 phosphorylation in PC-9; experiment: Western blot of downstream signalling, PC-9; assay type: cell-based, human; conditions: PC-9, 0.1 μM, 6 hours
Description: as §1

[10] = system: Akt, STAT3 and ERK 1/2 phosphorylation in H2228; experiment: Western blot of downstream signalling, H2228; assay type: cell-based, human; conditions: H2228, 0.1 μM, 6 hours
Description: as §1

[11] = system: H2228 cell line (EML4-ALK variant 3); experiment: MTS cell growth assay, H2228; assay type: cell-based; conditions: Homo sapiens, NCI-H2228, read-out: IC50, growth inhibition, H2228, 72 hours
Description: as §2

[12] = system: EML4-ALK fusion transformed Ba/F3 models; conditions: original study describing the EML4-ALK fusion gene; cited from earlier work
ALK kinase = ALK kinase (Homo sapiens, UniProt Q9UM73); conditions: initial studies, Li et al.; read-out: IC50 (ALK inhibitors); cited from earlier work
Chain of ALK kinase (Q9UM73 19-1620): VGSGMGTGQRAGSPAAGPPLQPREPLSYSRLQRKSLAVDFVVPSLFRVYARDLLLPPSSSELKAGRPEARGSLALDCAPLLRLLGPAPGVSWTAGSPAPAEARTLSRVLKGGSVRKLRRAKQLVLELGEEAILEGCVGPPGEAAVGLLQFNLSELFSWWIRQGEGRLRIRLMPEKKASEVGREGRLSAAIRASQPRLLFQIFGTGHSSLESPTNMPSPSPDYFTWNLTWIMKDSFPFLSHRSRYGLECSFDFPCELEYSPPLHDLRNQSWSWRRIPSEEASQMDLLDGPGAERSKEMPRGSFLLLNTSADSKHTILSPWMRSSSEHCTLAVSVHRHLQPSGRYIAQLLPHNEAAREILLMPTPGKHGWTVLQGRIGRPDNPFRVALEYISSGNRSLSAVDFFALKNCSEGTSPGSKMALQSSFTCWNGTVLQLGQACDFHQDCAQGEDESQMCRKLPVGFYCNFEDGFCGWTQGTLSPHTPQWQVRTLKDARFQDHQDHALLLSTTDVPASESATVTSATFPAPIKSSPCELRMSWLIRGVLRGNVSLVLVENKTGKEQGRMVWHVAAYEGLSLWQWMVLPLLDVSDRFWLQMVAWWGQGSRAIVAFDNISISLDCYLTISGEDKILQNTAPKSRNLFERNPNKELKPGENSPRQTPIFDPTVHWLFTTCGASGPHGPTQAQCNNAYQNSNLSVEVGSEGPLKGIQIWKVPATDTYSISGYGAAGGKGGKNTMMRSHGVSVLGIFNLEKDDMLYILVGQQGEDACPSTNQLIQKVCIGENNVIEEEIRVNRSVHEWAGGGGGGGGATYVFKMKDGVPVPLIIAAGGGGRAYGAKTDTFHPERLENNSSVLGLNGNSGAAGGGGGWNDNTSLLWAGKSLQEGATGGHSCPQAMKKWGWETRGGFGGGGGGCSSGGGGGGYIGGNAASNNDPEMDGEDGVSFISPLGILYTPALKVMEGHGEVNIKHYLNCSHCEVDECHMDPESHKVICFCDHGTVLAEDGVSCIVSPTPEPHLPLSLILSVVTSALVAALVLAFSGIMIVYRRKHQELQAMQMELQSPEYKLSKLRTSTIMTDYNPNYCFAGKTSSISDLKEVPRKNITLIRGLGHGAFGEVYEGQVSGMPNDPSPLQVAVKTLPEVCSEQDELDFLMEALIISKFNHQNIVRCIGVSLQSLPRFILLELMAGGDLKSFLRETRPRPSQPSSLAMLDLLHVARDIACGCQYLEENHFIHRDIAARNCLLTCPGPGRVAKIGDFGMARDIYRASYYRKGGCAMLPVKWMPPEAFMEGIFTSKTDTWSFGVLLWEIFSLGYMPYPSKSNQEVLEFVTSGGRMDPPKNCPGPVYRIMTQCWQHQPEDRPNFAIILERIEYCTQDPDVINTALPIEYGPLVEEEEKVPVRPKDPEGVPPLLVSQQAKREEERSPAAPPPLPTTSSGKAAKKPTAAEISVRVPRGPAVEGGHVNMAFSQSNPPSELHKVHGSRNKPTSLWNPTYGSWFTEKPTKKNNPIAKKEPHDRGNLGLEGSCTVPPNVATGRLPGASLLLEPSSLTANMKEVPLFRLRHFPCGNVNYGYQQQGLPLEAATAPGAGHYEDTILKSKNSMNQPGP

SMILES	IC50 (Karpas 299 cells) [nM]	bioavailability [1]	Akt, STAT3 and ERK 1/2 phosphorylation [2]	growth: resistance to the inhibitor [3]	IC50 [4] [nM]	growth: resistance to the inhibitor [5]	89 kDa cleaved PARP product (Western blot) (H3122 cell line)	apoptosis (FACS sub G1 fraction / cleaved PARP) (H3122 cell line)	apoptosis (FACS sub G1 fraction / cleaved PARP) (H3122 cell line; listed as TAE-684)	IC50 [6] [nM]	growth arrest or apoptosis [7]	Akt, STAT3 and ERK 1/2 phosphorylation [8]	Akt, STAT3 and ERK 1/2 phosphorylation [9]	Akt, STAT3 and ERK 1/2 phosphorylation [10]	IC50 [11] [nM]	growth inhibition [12]	IC50 (ALK kinase) [nM]
C[C@@H](Oc1cc(-c2cnn(C3CCNCC3)c2)cnc1N)c1c(Cl)ccc(F)c1Cl [PF-02341066]	26	good															
COc1cc(N2CCC(N3CCN(C)CC3)CC2)ccc1Nc1ncc(Cl)c(Nc2ccccc2S(=O)(=O)C(C)C)n1 [NVP-TAE684]	2 to 5	good	substantial inhibition; also recorded: decrease	resistant	1000 to 10000	resistant	observed	significant apoptosis	Significant apoptosis	~10	No growth arrest or apoptosis	unchanged; also recorded: no inhibition	unchanged	some but not complete inhibition; also recorded: only partial inhibition; also recorded: decrease	1000 to 10000		
COc1cc2ncnc(Nc3ccc(O)c(Br)c3)c2cc1OC [WHI-P154]																growth inhibition	~5000
